A value given as a limit tells only on which side of the number the result lay.

What is called IC50 is the concentration needed to halve the response being measured. Read a low IC50 as inhibition by little substance.

For experiment [1], the target named is T1, DNA polymerase delta catalytic subunit (Homo sapiens, UniProt P28340).
T1 sequence (P28340 whole entry): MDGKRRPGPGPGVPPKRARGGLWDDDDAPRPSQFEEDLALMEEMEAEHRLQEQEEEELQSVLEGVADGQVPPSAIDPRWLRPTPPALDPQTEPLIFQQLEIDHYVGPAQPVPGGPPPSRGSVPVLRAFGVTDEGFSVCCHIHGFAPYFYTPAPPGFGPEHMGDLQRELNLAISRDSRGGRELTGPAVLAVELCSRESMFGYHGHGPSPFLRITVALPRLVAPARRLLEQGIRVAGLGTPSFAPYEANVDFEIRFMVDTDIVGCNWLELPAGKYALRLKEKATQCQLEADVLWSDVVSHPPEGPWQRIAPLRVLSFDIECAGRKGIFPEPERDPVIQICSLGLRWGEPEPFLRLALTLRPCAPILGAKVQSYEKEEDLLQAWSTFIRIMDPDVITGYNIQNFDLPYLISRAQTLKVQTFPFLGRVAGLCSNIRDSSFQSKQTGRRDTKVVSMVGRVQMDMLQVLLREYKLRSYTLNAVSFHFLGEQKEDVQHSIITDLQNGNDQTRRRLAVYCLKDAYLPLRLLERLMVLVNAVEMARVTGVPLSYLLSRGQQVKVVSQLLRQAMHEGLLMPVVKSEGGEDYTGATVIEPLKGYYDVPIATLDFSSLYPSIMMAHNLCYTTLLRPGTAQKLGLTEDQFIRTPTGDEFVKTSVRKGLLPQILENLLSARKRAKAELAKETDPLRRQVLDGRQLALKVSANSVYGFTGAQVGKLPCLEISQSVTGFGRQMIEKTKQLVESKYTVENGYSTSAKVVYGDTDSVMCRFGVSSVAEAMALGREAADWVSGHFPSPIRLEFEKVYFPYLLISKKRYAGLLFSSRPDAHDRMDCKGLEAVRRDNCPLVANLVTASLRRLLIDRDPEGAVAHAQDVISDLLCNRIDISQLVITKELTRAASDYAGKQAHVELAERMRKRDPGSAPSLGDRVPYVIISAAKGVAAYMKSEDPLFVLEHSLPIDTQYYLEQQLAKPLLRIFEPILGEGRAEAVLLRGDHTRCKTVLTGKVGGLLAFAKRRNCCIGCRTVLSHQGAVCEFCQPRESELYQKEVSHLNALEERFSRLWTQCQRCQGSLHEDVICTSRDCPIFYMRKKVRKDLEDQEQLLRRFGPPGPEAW
Nature of the experiment: Inhibition of human delta DNA polymerase (95 uL) activity in a solution containg […] HEPES (pH 7.5) upon incubation for 12 minutes at 26 degrees C with the compound dissolved in DMSO.

In experiment [2] the target is T2, DNA polymerase catalytic subunit (Herpes simplex virus (type 1 / strain 17), UniProt P04293).
T2 sequence (P04293 whole entry): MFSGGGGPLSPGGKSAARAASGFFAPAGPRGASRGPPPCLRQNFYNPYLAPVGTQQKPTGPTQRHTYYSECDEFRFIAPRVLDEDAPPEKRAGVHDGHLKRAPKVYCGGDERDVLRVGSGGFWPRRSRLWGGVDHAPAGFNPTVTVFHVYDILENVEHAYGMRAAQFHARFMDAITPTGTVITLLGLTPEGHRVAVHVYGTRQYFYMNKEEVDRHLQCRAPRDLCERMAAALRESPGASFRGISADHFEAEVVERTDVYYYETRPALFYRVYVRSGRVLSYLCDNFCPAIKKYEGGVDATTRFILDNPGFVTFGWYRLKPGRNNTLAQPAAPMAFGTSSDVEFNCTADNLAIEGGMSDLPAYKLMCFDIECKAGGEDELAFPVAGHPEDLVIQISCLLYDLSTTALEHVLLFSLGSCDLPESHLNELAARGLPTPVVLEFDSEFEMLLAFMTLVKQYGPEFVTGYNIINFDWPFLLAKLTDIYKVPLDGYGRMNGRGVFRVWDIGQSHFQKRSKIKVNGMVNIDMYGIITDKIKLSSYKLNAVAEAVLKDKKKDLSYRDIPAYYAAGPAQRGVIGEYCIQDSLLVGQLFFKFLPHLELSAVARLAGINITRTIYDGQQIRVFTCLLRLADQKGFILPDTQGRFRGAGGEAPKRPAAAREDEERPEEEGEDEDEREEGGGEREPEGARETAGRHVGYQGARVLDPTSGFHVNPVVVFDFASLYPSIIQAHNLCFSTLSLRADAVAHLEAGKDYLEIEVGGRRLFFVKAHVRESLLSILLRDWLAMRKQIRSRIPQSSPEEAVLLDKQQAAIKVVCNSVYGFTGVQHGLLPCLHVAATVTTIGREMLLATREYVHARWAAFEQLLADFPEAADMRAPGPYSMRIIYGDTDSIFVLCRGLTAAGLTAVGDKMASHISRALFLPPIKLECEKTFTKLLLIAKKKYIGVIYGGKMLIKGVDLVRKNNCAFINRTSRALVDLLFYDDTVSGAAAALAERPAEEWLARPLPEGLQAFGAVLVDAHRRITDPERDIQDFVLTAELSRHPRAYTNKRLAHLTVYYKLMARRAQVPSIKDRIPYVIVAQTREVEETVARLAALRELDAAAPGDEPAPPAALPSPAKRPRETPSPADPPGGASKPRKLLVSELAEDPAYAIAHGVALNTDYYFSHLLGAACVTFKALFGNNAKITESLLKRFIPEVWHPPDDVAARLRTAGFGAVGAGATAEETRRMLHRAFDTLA
Nature of the experiment: Inhibition of herpes simplex virus type 1 DNA polymerase (95 uL) activity in a solution containing […] HEPES (pH 7.5), incubation for 12 minutes at 26 degrees C. On the set-up: species or system Human alphaherpesvirus 1.

In the case of `Cn1cc(C(=O)NCc2ccc(Cl)cc2)c(=O)c2cc(CN3CCOCC3)sc21`, the IC50 in experiment [1] is greater than 40 µM.

For `O=C(NCc1ccc(Cl)cc1)c1cnc2ccc(CCCO)cc2c1O`, the IC50 is greater than 40 µM in experiment [1] and 0.3 µM in experiment [2].

Regarding `Cn1cc(C(=O)NCc2ccc(Cl)cc2)c(=O)c2cc(CN3CCOCC3)ccc21`, the half-inhibitory concentration (IC50) in experiment [1] is greater than 40 µM; in experiment [2], 0.6 µM.

(Values after ChEMBL document CHEMBL1141075, “4-Oxo-4,7-dihydrothieno[2,3-b]pyridines as non-nucleoside inhibitors of human cytomegalovirus and related herpesvirus polymerases” (J Med Chem, 2005).)
